Measured values as given in US8003630B2, “Combinatorial therapies for the treatment of neoplasias using the opioid growth factor receptor” (The Penn State Research Foundation, priority 2004, dated 2011).
Marks after values point to notes of the source that are not given here.

Columns and labels:
[1] = system: SCC-1 cells; test: Necrosis, trypan blue positivity of SCC-1 cells; format: cell-based, human; conditions: SCC-1 cultures or supernatants
Method: Cell number was recorded either by using the MTS proliferation bioassay (Cell Titer 96 One Solution, Promega, Madison, Wis.) and measuring absorbency after 4 hr on a Biorad (Model 3550) plate reader at 490 nm with a 750 nm background absorbance screening, or by directly counting cells. The MTS assay utilized 10 wells/treatment. For manual counts, cells were harvested by trypsinization with 0.25% trypsin/0.53 mM EDTA, centrif uiged, and counted with a hemacytometer. Cell viability was determined by trypan blue staining. At least two aliquots per well, and 4-10 wells/treatment, were counted at each time for manual counting.

[2] = Plasma levels of OGF by radioimmunoassay, SCC-1 tumor mice; format: in vivo, nude mice; conditions: at termination
Method: Plasma samples were assayed in duplicate.

[3] = system: SCC-1 SCCHN cells; conditions: athymic nude, mouse, in vivo
Method: Tumor dimensions were recorded every day beginning on the day that the tumors were considered measurable.

[4] = system: MiaPaCa-2 cells; test: Gemcitabine and OGF cell cycle phase analysis by flow cytometry; format: cell-based, human; conditions: 2 to 24 hours after OGF exposure
Method: To investigate the exact cell cycle phase where gemcitabine and/or OGF exerted their effects, flow cytometry was performed.

[5] = system: MiaPaCa-2 cells; test: OGF/gemcitabine treatment in athymic nude mouse model (Example 5); format: in vivo, athymic nude mice
Text: To examine the effectiveness of the combined OGF/gemcitabine treatments in vivo, an athymic nude mouse model was used.

[6] = system: MIA PaCa-2 cells; test: Growth assays of MIA PaCa-2 cells (MTS assay or cell counting), Example 7; format: cell-based, human; conditions: MIA PaCa-2; 96 hr (48 hr after reversal)
Method: MIA PaCa-2 and PANC-1 human pancreatic adenocarcinoma cell lines were purchased from the American Type Culture Collection (Manasass, Va.). MIA PaCa-2 cells were derived from an undifferentiated epithelial carcinoma occurring in the body and tail of the pancreas in a person. The PANC-1 cells were derived from an undifferentiated carcinoma from the head of the pancreas in a person. MIA PaCa-2 and PANC-1 cells were grown in Dulbecco's MEM (modified) media; media was supplemented with 10% fetal calf serum, 1.2% sodium bicarbonate, and antibiotics (5,000 Units/ml penicillin, 5 mg/ml streptomycin, 10 mg/ml neomycin), and the cells were maintained in a humidified atmosphere of 7% CO2/93% air at 37° C.
MIA PaCa-2 cells were seeded at equivalent amounts into either 75 cm^2 flasks, 6-well plates, or 96-well plates (Falcon) and counted 24 hr later to determine plating efficiency. Growth assays for PANC-1 cells were conducted in 6-well plates (Falcon). Compounds or sterile water were added beginning 24 hr after seeding (=0 hr), and both media and compounds were replaced daily. All drugs were prepared in sterile water and dilutions represent final concentrations of the compounds.
Cell number was recorded either by using a mitogenic bioassay, the MTS assay (Cell Titer 96 One Solution, Promega, Madison, Wis.), and measuring absorbency after 4 hr on a Biorad (Model 3550) plate reader at 490 nm, or by counting cells. For manual counts, cells were harvested with a solution of 0.25% trypsin/0.53 mM EDTA, centrif uiged, and counted with a hemacytometer. Cell viability was determined by trypan blue staining. At least two aliquots per flask or 4-10 wells/treatment were counted at each time.

[7] = system: MIA PaCa-2 cells; test: MIA PaCa-2 xenograft in nude mice, tumor appearance, growth and termination day measurements (Example 7); format: in vivo, BALB/c-nu/nu nude mice
Text: Male 4 week old BALB/c-nu/nu nude mice purchased from Harlan Laboratories (Indianapolis, Ind.) were housed in pathogen-free isolators in the Department of Comparative Medicine at the Penn State University College of Medicine. All procedures were approved by the IACUC committee of the Penn State University College of Medicine and conformed to the guidelines established by NIH. Mice were allowed 48 hr to acclimate prior to beginning experimentation.
MIA PaCa-2 cells (10^6 cells/mouse) were inoculated into nude mice by subcutaneous injection into the right scapular region; mice were not anesthetized for this procedure.
All drugs were dissolved in saline and prepared weekly. Injections were given within 1 hr of tumor cell inoculation.
Mice were weighed weekly throughout the experiment, and observed daily for the presence of tumors. The latency for a visible tumor to appear, and the time until tumors were measurable (i.e., 62.5 mm^3) were recorded. Tumors were measured using calipers every day after tumor appearance. Tumor volume was calculated using the formula w^2×1×π/6, where the length is the longest dimension, and width is the dimension perpendicular to length.
According to IACUC guidelines, mice were terminated when tumors became ulcerated, or tumors grew to 2 cm in diameter. Forty-five days following tumor cell inoculation, all mice were euthanized by an overdose of sodium pentobarbital (100 mg/kg) and killed by cervical dislocation; mice (with tumors) were weighed. Tumors and spleens were removed and weighed, and the lymph nodes, liver, and spleen examined for metastases.

Row | Compound | necrosis, number of trypan blue positive cells versus control [1] | OGF levels in plasma versus control mice with tumors [2] | mice still alive on termination day, % of the group ([3]; 50 day) [%] | day on which mice began dying ([3]; 50 days) [days] | increase of cells in the G0/G1 phase of the cell cycle [4] | mice with tumors ([5]; day 16 after tumor cell inoculation) | tumors smaller than control mice, reduction ([5]; from the 6th timepoint (12th day of measurable tumor)) | difference in cell number between reversal group and group continuing drug exposure [6] [%] | day from which tumor volume differed from controls ([7]; at least p<0.05) [days] | mice with measurable tumors ([7]; day 10) [%] | tumor volumes decreased from control values ([7]; day 45) [%] | Tumor Volume, mm^3 ([7]; day 45, means ± SEM) | Tumor Weight ([7]; day 45, means ± SEM) [g] | Latency to measurable tumor ([7]; means ± SEM) [days] | Latency to visible tumor ([7]; means ± SEM) [days] | Tumor Incidence, day 16 ([7]; mice with tumor/N) | Tumor Incidence, day 10 ([7]; mice with tumor/N, OGF 10 mg/kg daily and/or gemcitabine 120 mg/kg every 3 days i.p.) | weights of tumors decreased from control levels ([7]; termination day (day 45)) [%]
1 | CC(=O)O[C@H]1C(=O)[C@@]2(C)[C@H]([C@H](OC(=O)c3ccccc3)[C@]3(O)C[C@H](OC(=O)[C@H](O)[C@@H](NC(=O)c4ccccc4)c4ccccc4)C(C)=C1C3(C)C)[C@]1(OC(C)=O)CO[C@@H]1C[C@@H]2O [paclitaxel] | No differences in necrosis | No differences | 8 | 19 | – | – | – | – | – | – | – | – | – | – | – | – | – | –
2 | [Met^5]-enkephalin [OGF] | – | – | – | – | no significant increases into the G0/G1 phase | all mice | 29.9-40.7% | 16 | 14 | 60 | 46 | 4849 ± 490*** mm^3 | 3.5 ± 0.5 | 14.2 ± 0.8 | 10.7 ± 0.8 | 10/10 | 6/10 | 36
